Assay results: ChEMBL document CHEMBL1137889, “Synthesis and antienteroviral activity of a series of novel, oxime ether-containing pyridyl imidazolidinones” (Bioorg Med Chem Lett, 2004)

Assays:
[1] = tested on: Coxsackievirus; assay: inhibition concentration required against coxsackievirus B6 was determined by plaque reduction assay; assay type: functional, organism-based
[2] = tested on: Coxsackievirus; assay: inhibition concentration required against coxsackievirus B2 was determined by plaque reduction assay; assay type: functional, organism-based
[3] = tested on: Coxsackievirus; assay: inhibition concentration required against coxsackievirus B1 was determined by plaque reduction assay; assay type: functional, organism-based
[4] = tested on: Enterovirus A71; assay: inhibition concentration required against human enterovirus 71 (2231) genotype C was determined by plaque reduction assay; assay type: functional, organism-based; conditions: Enterovirus A
[5] = tested on: Rhabdomyosarcoma cell; assay: Concentration required for 50% cytotoxicity against human rhabdomyosarcoma cell lines; assay type: functional
[6] = tested on: Coxsackievirus; assay: inhibition concentration required against coxsackievirus A16 was determined by plaque reduction assay; assay type: functional, organism-based
[7] = tested on: Coxsackievirus; assay: inhibition concentration required against coxsackievirus B5 was determined by plaque reduction assay; assay type: functional, organism-based
[8] = tested on: Enterovirus D68; assay: inhibition concentration required against human enterovirus 68 was determined by plaque reduction assay; conditions: Enterovirus D
[9] = tested on: Enterovirus A71; assay: inhibition concentration required against human enterovirus 71 strain 4643 was determined by plaque reduction assay; assay type: functional, organism-based; conditions: Enterovirus A
[10] = tested on: Enterovirus A71; assay: inhibition concentration required against human enterovirus 71 (BrCr) genotype A was determined by plaque reduction assay; assay type: functional, organism-based
[11] = tested on: Enterovirus A71; assay: inhibition concentration required against human enterovirus 71 (2086) genotype C was determined by plaque reduction assay; assay type: functional, organism-based; conditions: Enterovirus A
[12] = tested on: Coxsackievirus; assay: inhibition concentration required against coxsackievirus A10 was determined by plaque reduction assay; assay type: functional, organism-based
[13] = tested on: Coxsackievirus; assay: inhibition concentration required against coxsackievirus B4 was determined by plaque reduction assay; assay type: functional, organism-based
[14] = tested on: Coxsackievirus; assay: inhibition concentration required against coxsackievirus B3 was determined by plaque reduction assay; assay type: functional, organism-based
[15] = tested on: Coxsackievirus; assay: inhibition concentration required against coxsackievirus A24 was determined by plaque reduction assay; assay type: functional, organism-based
[16] = tested on: Enterovirus A71; assay: inhibition concentration required against human enterovirus 71 (1743) genotype B was determined by plaque reduction assay; assay type: functional, organism-based; conditions: Enterovirus A
[17] = tested on: Echovirus; assay: inhibition concentration required against echovirus 29 was determined by plaque reduction assay; assay type: functional, organism-based
[18] = tested on: Echovirus; assay: inhibition concentration required against echovirus 9 was determined by plaque reduction assay; assay type: functional, organism-based
[19] = tested on: Coxsackievirus; assay: inhibition concentration required against coxsackievirus A9 was determined by plaque reduction assay; assay type: functional, organism-based

IC50 [1]: > 25000 nM
IC50 [2]: > 25000 nM
IC50 [3]: > 25000 nM
IC50 [4]: 80 nM
IC50 [6]: > 25000 nM
IC50 [7]: 4180 nM
IC50 [8]: > 25000 nM
IC50 [9]: 30 nM
IC50 [10]: 50 nM
IC50 [11]: 70 nM
IC50 [12]: 8610 nM
IC50 [13]: 3140 nM
IC50 [14]: > 25000 nM
IC50 [15]: 140 nM
IC50 [16]: 90 nM
IC50 [17]: 30 nM
IC50 [18]: 300 nM
IC50 [19]: 40 nM
Structure (SMILES): O=C1N(CCCCCOc2ccc(-c3ccc(Cl)cc3)cc2)CCN1c1ccncc1
CC50 [5]: > 12500 nM
